In patent publication US8853183B2, “Prognosis and treatment of breast cancer” (Trustees of Darmouth College, priority 2005, dated 2014):

Assays:
[1] = tested on: breast cancer cells; conditions: Pizer, et al. (1996); cited from earlier work
[2] = tested on: human ovarian tumor cell xenografts; conditions: nude mice; Pizer, et al. (1996); cited from earlier work
[3] = tested on: SREBP-1c mRNA; assay: Real-time RT-PCR of SREBP-1c mRNA in T47D cells; conditions: 10 nM, within 48 hours, cyclophilin as control
[4] = tested on: S14 mRNA; conditions: Heemers, et al. (2000); cited from earlier work
[5] = tested on: human FAS gene promoter; assay: Human FAS gene promoter fragment luciferase reporter; assay type: cell-based; conditions: 48 hours exposure
Procedure: (§1) Using a human S14 gene promoter fragment fused to a luciferase reporter, the mechanism underlying R1881-induced accumulation of S14 mRNA was determined. The human S14 construct contained the proximal 4003 bp of the S14 promoter (Campbell, et al. (2003) Endocrinol. 144:5242-5248). […] Nevertheless, R1881 induced promoter activity by 4-fold. Employing a 157 bp fragment of the human FAS gene promoter that is also devoid of progesterone response elements (Swinnen, et al. (1997) supra), the effect of R1881 on FAS gene expression was examined.
(§2) T47D or HEK 293 cells were plated at 50% confluence in 75 cm^2 flasks and the next morning were transfected with 8 μg plasmid DNA in 48 μL FUGENE (Roche, Indianapolis, Ind.) in 5% charcoal-stripped serum-containing media without antibiotics. To ensure uniform transfection efficiency, cells were trypsinized, mixed, and redistributed into 6-well plates 8 hours later. Forty-eight hours post-transfection, culture medium was removed, and extracts prepared in reporter lysis buffer (250 μL/well; PROMEGA, Madison, Wis.). Lysates (20 μL) were assessed for luciferase activity using an LMaxII384 luminometer (MOLECULAR DEVICES, Sunnyvale, Calif.), and normalized to protein concentrations (BCA Protein Assay; Pierce, Rockland, Ill.).

[6] = tested on: S14 mRNA; assay: Real-time RT-PCR of S14 mRNA in T47D cells
[7] = tested on: S14 protein; assay: Western blot of S14 protein in T47D cells; conditions: single stimulus; R1881 10 nM 48 hours or adenovirus alone
[8] = tested on: FAS mRNA; assay: Real-time RT-PCR of FAS mRNA in T47D cells
[9] = tested on: human S14 gene promoter; assay: Human S14 gene promoter fragment luciferase reporter; assay type: cell-based; conditions: proximal 4003 bp of human S14 promoter fused to luciferase
Procedure: as §1, §2

[10] = tested on: lipogenic prostate cancer cells xenografts; conditions: immunodeficient mice; Kridel, et al. (2004); cited from earlier work
[11] = tested on: lipogenic prostate cancer cells; conditions: Kridel, et al. (2004); cited from earlier work
[12] = 10 nM, within 48 hours, T47D cells, cyclophilin as control
[13] = time course using nM R5020, T47D cells

C/C=C/C/C=C/CCC(=O)[C@H]1O[C@H]1C(N)=O [Cerulenin]
apoptosis of breast cancer cells [1]: cause apoptosis
growth of human ovarian tumor cell xenografts [2]: inhibit the growth

C[C@]1(O)CC[C@H]2[C@@H]3CCC4=CC(=O)CCC4=C3C=C[C@@]21C [R1881]
SREBP-1c mRNA induction [3]: significantly induced
S14 mRNA induction in T47D cells [4]: significantly induces
FAS promoter induction ([5]; 157 bp fragment of human FAS gene promoter): 4 fold
FAS promoter response, construct with sterol response element deleted [5]: markedly reduced
S14 mRNA induction [6, 12]: significantly induced
S14 mRNA induction by R1881 in presence of control adenovirus (Ad-β-gal) ([6]; R1881 10 nM, RNA harvested 40 hours later, MOI 50): ~8 fold
S14 protein (~16 kD band) on western blot [7]: faint band
FAS mRNA induction [8, 12]: significantly induced
FAS mRNA induction by R1881 in presence of Ad-β-gal ([8]; T47D cells): ~2 fold
S14 promoter activity induction [9]: 4 fold

CCCCCCCCCCC[C@@H](C[C@@H]1OC(=O)[C@H]1CCCCCC)OC(=O)[C@H](CC(C)C)NC=O [Orlistat]
apoptosis of lipogenic prostate cancer cells in xenografts [10]: causes apoptosis
apoptosis of lipogenic prostate cancer cells in culture [11]: causes apoptosis

CCC(=O)[C@@]1(C)CC[C@H]2[C@@H]3CCC4=CC(=O)CCC4=C3CC[C@@]21C [R5020]
S14 mRNA induction in T47D cells [4]: significantly induces
S14 mRNA induction, time course [6, 13]: comparable to that observed with R1881
lag time between application of the hormone and onset of accumulation of S14 mRNA ([6]; time course, T47D cells): > 10 h
FAS mRNA induction, time course [8, 13]: comparable to that observed with R1881
lag time between application of the hormone and onset of accumulation of FAS mRNA ([8]; time course, T47D cells): > 10 h
